Laboratory results: patent US20130178488A1, “TRICYCLIC COMPOUNDS, PREPARATION METHODS, AND THEIR USES” (priority 2011, published 2013)
pIC50: −log10 of the molar value.

Biological target: T1, recombinant human Lp-PLA2 (Homo sapiens, UniProt Q13093)
T1 sequence (Q13093 22-441): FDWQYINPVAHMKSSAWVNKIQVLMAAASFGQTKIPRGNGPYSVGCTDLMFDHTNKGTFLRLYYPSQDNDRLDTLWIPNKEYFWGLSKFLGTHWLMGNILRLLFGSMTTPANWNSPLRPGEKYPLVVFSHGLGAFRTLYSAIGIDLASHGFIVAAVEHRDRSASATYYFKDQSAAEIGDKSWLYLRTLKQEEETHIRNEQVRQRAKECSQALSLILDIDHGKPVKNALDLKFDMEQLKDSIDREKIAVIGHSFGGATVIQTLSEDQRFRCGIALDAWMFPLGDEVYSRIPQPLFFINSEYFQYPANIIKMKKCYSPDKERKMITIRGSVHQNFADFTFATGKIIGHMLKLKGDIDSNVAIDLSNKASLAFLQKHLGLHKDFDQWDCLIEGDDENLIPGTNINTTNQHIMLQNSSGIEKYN
Assay: Recombinant human Lp-PLA2 assay (rhLp-PLA2, PED6 assay)
Type: biochemical
Conditions: one experiment or average of multiple experiments; upper limit of the PED6 assay is pIC50 9.3
Text: (1) Recombinant Human Lp-PLA2 Assay (rhLp-PLA2) (Also Referred to as “PED6” Assay)
N-((6-(2,4-dinitrophenyl)amino)-hexanoyl)-2-(4,4-difluoro-5,7-dimethyl-4-bora-3a,4a-diaza-s-indacene-3-pentanoyl)-1-hexadecanoyl-sn-glycero-3-phosphoethanolamine, triethylammonium salt (PED6) is a commercially available fluorescently-labeled phospholipid, which is commercially available from Molecular Probes. There is a quenching para-nitro phenyl (PNP) group in the sn3 position and a Bodipy fluorescein (FL) group in the sn2 position. Upon cleavage with LpPLA2, the Bodipy Fl group is liberated and then may result in an increase in fluorescence. Inhibitors of LpPLA2 therefore prevent this cleavage and no fluorescent increase is observed.
The PED6 assay is run as an unquenched 10 μL assay. Compounds source plate is prepared by making 1:3 (by volume) serial dilution of the compounds into pure DMSO on 384-well microplate. Then 0.01 μL of compounds on compound source plate are transferred into 384 well Greiner 784076 (black) plates by ECHO liquid dispenser. 5 μL of recombinant human Lp-PLA2 enzyme (2 nM rhLp-PLA2 in assay buffer of 50 mM HEPES, pH7.4, 150 mM NaCl, 1 mM CHAPS) is added to each well of the plate with compounds. Plates are centrifuged for 10 sec at 500 rpm. After 30 minutes preincubation, 5 μL of substrate (4 μM PED6 [from 5 mM DMSO stock] in assay buffer of 50 mM HEPES, pH7.4, 150 mM NaCl, 1 mM CHAPS) is added to 384 well Greiner 784076 (black) plates. Plates are centrifuged for 10 sec at 500 rpm. Plate is covered to protect from light and incubated for 20 min at room temperature. Plates are read for Fluorescence intensity at ex: 480/em: 540 using ViewLux microplate imager. PIC50 data, curve and QC analysis is conducted by using XL fit module in Excel.

pIC50	Structure (SMILES)
9.10	N#Cc1cc(COc2cc3n(c(=O)n2)CCc2ccccc2-3)ccc1Oc1ccc(Cl)c(C(F)(F)F)c1 [Example 88, 2-(4-chloro-3-(trifluoromethyl)phenoxy)-5-(((4-oxo-6,7-dihydro-4H-pyrimido[6,1-a]isoquinolin-2-yl)oxy)methyl)benzonitrile]
8.50	N#Cc1cc(COc2cc3n(c(=O)n2)CCc2cc(F)ccc2-3)ccc1Oc1cccc(C(F)(F)F)c1 [Example 89, 5-(((9-fluoro-4-oxo-6,7-dihydro-4H-pyrimido[6,1-a]isoquinolin-2-yl)oxy)methyl)-2-(3-(trifluoromethyl)phenoxy)benzonitrile]
9.00	N#Cc1cc(COc2cc3n(c(=O)n2)CCc2ccccc2-3)ccc1Oc1ccc(C(F)(F)F)nc1 [Example 91, 5-(((4-oxo-6,7-dihydro-4H-pyrimido[6,1-a]isoquinolin-2-yl)oxy)methyl)-2-((6-(trifluoro-methyl)pyridin-3-yl)oxy)benzonitrile]
9.10	N#Cc1cc(COc2cc3n(c(=O)n2)CCc2cc(F)ccc2-3)ccc1Oc1ccc(Cl)c(C(F)(F)F)c1 [Example 92, 2-(4-chloro-3-(trifluoromethyl)phenoxy)-5-(((9-fluoro-4-oxo-6,7-dihydro-4H-pyrimido[6,1-a]isoquinolin-2-yl)oxy)methyl)benzonitrile]
9.00	N#Cc1cc(COc2cc3n(c(=O)n2)CCc2cc(F)ccc2-3)ccc1Oc1ccc(C(F)(F)F)cn1 [Example 93, 5-(((9-fluoro-4-oxo-6,7-dihydro-4H-pyrimido[6,1-a]isoquinolin-2-yl)oxy)methyl)-2-((5-(trifluoromethyl)pyridin-2-yl)oxy)benzonitrile]
9.00	O=c1nc(OCc2cc(F)c(Oc3ccc(C(F)(F)F)nc3)c(F)c2)cc2n1CCc1ccccc1-2 [Example 94, 2-((3,5-difluoro-4-((6-(trifluoromethyl)pyridin-3-yl)oxy)benzyl)oxy)-6,7-dihydro-4H-pyrimido[6,1-a]isoquinolin-4-one]
9.10	N#Cc1cc(COc2cc3n(c(=O)n2)CCc2ccccc2-3)ccc1Oc1cccc(C(F)(F)F)n1 [Example 96, 5-(((4-oxo-6,7-dihydro-4H-pyrimido[6,1-a]isoquinolin-2-yl)oxy)methyl)-2-((6-(trifluoro-methyl)pyridin-2-yl)oxy)benzonitrile]
≥ 9.30	O=c1nc(OCc2ccc(Oc3cnc(C(F)(F)F)nc3)c(F)c2)cc2n1CCc1cc(F)ccc1-2 [Example 98, 9-fluoro-2-((3-fluoro-4-((2-(trifluoromethyl)pyrimidin-5-yl)oxy)benzyl)oxy)-6,7-dihydro-4H-pyrimido[6,1-a]isoquinolin-4-one]
≥ 9.30	COc1ccc2c(c1)CCn1c-2cc(Oc2ccc(Oc3cccc(C(F)(F)F)c3)c(C#N)c2)nc1=O [Example E1, 5-((9-Methoxy-4-oxo-6,7-dihydro-4H-pyrimido[6,1-a]isoquinolin-2-yl)oxy)-2-(3-(trifluoromethyl)phenoxy)benzonitrile]
9.20	COc1ccc2c(c1)CCn1c-2cc(OCc2ccc(Oc3ccc(C(F)(F)F)cn3)c(C#N)c2)nc1=O [Example E22, 5-(((9-Methoxy-4-oxo-6,7-dihydro-4H-pyrimido[6,1-a]isoquinolin-2-yl)oxy)methyl)-2-((5-(trifluoromethyl)pyridin-2-yl)oxy)benzonitrile]
9.00	COc1ccc2c(c1)CCn1c-2cc(OCc2ccc(Oc3ccc(C(F)(F)F)nc3)c(C#N)c2)nc1=O [Example E36, 5-({[9-(Methyloxy)-4-oxo-6,7-dihydro-4H-pyrimido[6,1-a]isoquinolin-2-yl]oxy}methyl)-2-{[6-(trifluoromethyl)-3-pyridinyl]oxy}benzonitrile]
9.00	COc1ccc2c(c1)CCn1c-2cc(OCc2ccc(Oc3ccc(C(F)(F)F)nc3)c(F)c2)nc1=O [Example E58, 2-((3-fluoro-4-((6-(trifluoromethyl)pyridin-3-yl)oxy)benzyl)oxy)-9-methoxy-6,7-dihydro-4H-pyrimido[6,1-a]isoquinolin-4-one]
